# Source: patent US8871760B2, “[1,2,4]triazolo[3,4-C][1,4]oxazines as P2X7 modulators” (Roche Palo Alto LLC, priority 2009, dated 2014)
# Molecular target: T1, human P2X7 (UniProt Q99572)
# T1 sequence (Q99572 1-595): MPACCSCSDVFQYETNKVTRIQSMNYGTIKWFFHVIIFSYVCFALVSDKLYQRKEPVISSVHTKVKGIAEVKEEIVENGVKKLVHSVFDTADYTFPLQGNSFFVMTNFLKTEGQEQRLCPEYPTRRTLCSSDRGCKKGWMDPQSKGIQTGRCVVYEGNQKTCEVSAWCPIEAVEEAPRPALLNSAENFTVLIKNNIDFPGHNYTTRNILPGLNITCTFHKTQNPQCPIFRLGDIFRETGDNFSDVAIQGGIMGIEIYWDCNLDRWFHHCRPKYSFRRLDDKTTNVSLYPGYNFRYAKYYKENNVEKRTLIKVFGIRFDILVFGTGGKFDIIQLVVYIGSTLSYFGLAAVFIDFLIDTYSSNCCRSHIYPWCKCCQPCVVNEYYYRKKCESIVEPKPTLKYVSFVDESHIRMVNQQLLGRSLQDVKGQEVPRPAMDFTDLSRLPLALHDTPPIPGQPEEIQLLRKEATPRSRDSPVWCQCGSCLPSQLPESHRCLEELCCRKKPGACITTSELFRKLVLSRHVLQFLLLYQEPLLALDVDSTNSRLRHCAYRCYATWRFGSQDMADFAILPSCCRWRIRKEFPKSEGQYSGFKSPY
# Experiment: Intracellular Calcium Flux (FLIPR) Assay
# Assay type: cell-based
# Method: Intracellular Calcium Flux (FLIPR) Assay
# Compound and Reagent Preparation
# Stock solutions of compounds were prepared from powders as a 10 mM DMSO stock solution. These solutions were stored at RT during the two week period of these experiments to prevent freeze-thaw of the DMSO stocks. The DMSO stocks were added to the appropriate assay buffer at a concentration of 10 μM, and then diluted serially to the final concentrations that were tested. No observable precipitate was formed at any time during this process. The aqueous solutions of compounds as well as ATP (Sigma A7699) and BzATP (Sigma B6396) were prepared fresh for each day of experiment.
# 1321N1 cells stably expressing the full length human P2X7 gene (1321N1-hP2X7) and HEK293 cells stably expressing the full length rat P2X7 gene (HEK293-rP2X7) were obtained from the Roche Cell Culture Facility. 1321N1-hP2X7 cells were grown in Dulbecco's Modified Eagle's Medium (DMEM) high glucose supplemented with 10% FBS and […] G418. HEK293-rP2X7 cells were grown in DMEM/F-12 supplemented with 10% FBS, 1 mM CaCl2, 2 mM MgCl2, 2 mM L-Glutamine and […] G418. Cells were split such that they never became >70% confluent.
# Intracellular Calcium Flux (FLIPR)
# On the day prior to the experiment, 1321N1-hP2X7 or HEK293-rP2X7 cells were released into suspension with calcium-free PBS+Versene and washed by centrifugation with calcium-free PBS to remove the Versene. Cells were resuspended in growth medium at a density of 2.5×10^5 cells/mL and seeded into black walled, clear bottom 96 well plates (50,000 cells/well) approximately 18 hr prior to intracellular calcium flux experiments.
# On the day of the experiment, plates were washed with FLIPR buffer (calcium- and magnesium-free Hank's Balanced Salt Solution (HBSS) supplemented with 10 mM Hepes, 2.5 mM probenecid and 2 mM calcium chloride) using a BIO-TEK 96 channel plate washer and incubated with […] fluo-3 dye at 37° C. for one hr. The dye was then removed by plate washing and the cells were allowed to equilibrate for 20 min at room temperature with antagonist or vehicle (FLIPR buffer). Agonist (100 μM BzATP final concentration for hP2X7; 5 μM BzATP final concentration or rP2X7) was added online with the FLIPR and fluorescence measurements made at 1 sec intervals for 60 sec followed by 3 sec intervals for a further 4 min (5 min total). A final addition of 5 μM ionomycin was made and the maximal BzATP-evoked fluorescence normalized to the maximal ionomycin-evoked fluorescence.
row,pIC50,Compound
1,7.625,"COc1cc(Br)c(Nc2nnc3n2C(c2ccc(F)cc2)CSC3)cc1OC (centres unmarked) [Compound 10, (2-Bromo-4,5-dimethoxy-phenyl)-[5-(4-fluoro-phenyl)-5,6-dihydro-8H-[1,2,4]triazolo[3,4-c][1,4]thiazin-3-yl]-amine]"
2,7.735,"Cc1ccc(-c2cc(C)n(CCO)n2)cc1Nc1nnc2n1[C@H](c1ccc(F)cc1)COC2 [Compound 30, 2-(3-{3-[(R)-5-(4-Fluoro-phenyl)-5,6-dihydro-8H-[1,2,4]triazolo[3,4-c][1,4]oxazin-3-ylamino]-4-methyl-phenyl}-5-methyl-pyrazol-1-yl)-ethanol]"
3,7.442,"Cc1ccc2ncccc2c1Nc1nnc2n1[C@H](c1ccccc1)COC2 [Compound 11, (6-Methyl-quinolin-5-yl)-((R)-5-phenyl-5,6-dihydro-8H-[1,2,4]triazolo[3,4-c][1,4]oxazin-3-yl)-amine]"
4,8.28,"Cc1ccc(-c2ccn[nH]c2=O)cc1Nc1nnc2n1[C@H](c1ccc(F)cc1)COC2 [Compound 43, 4-{3-[(R)-5-(4-Fluoro-phenyl)-5,6-dihydro-8H-[1,2,4]triazolo[3,4-c][1,4]oxazin-3-ylamino]-4-methyl-phenyl}-2H-pyridazin-3-one]"
5,7.98,"COc1cc(C)c(Nc2nnc3n2[C@H](c2ccc(F)cc2)CCC3)cc1OC [Compound 4, (4,5-Dimethoxy-2-methyl-phenyl)-[(S)-5-(4-fluoro-phenyl)-5,6,7,8-tetrahydro-[1,2,4]triazolo[4,3-a]pyridin-3-yl]-amine]"
6,7.693,"CCc1c(Nc2nnc3n2[C@H](c2ccc(F)cc2)CCC3)ccc2ncccc12 [Compound 8, (5-Ethyl-quinolin-6-yl)-[(S)-5-(4-fluoro-phenyl)-5,6,7,8-tetrahydro-[1,2,4]triazolo[4,3-a]pyridin-3-yl]-amine]"
7,7.855,"Cc1cnn(-c2ccc(C)c(Nc3nnc4n3[C@H](c3ccc(F)cc3)COC4)c2)c1 [Compound 22, [(R)-5-(4-Fluoro-phenyl)-5,6-dihydro-8H-[1,2,4]triazolo[3,4-c][1,4]oxazin-3-yl]-[2-methyl-5-(4-methyl-pyrazol-1-yl)-phenyl]-amine]"
8,7.5475,"Cc1ccc(-c2cc(C)n(C[C@@H](O)CO)n2)cc1Nc1nnc2n1[C@H](c1ccc(F)cc1)COC2 [Compound 32, (R)-3-(3-{3-[(R)-5-(4-Fluoro-phenyl)-5,6-dihydro-8H-[1,2,4]triazolo[3,4-c][1,4]oxazin-3-ylamino]-4-methyl-phenyl}-5-methyl-pyrazol-1-yl)-propane-1,2-diol]"
9,7.46,"Cc1ccc2[nH]c(=O)ccc2c1Nc1nnc2n1[C@H](c1ccc(F)cc1)COC2 [Compound 38, 5-[(R)-5-(4-Fluoro-phenyl)-5,6-dihydro-8H-[1,2,4]triazolo[3,4-c][1,4]oxazin-3-ylamino]-6-methyl-1H-quinolin-2-one]"
10,8.2,"O=c1[nH]nccc1-c1ccc(Br)c(Nc2nnc3n2[C@H](c2ccc(F)cc2)COC3)c1 [Compound 49, 4-{4-Bromo-3-[(R)-5-(4-fluoro-phenyl)-5,6-dihydro-8H-[1,2,4]triazolo[3,4-c][1,4]oxazin-3-ylamino]-phenyl}-2H-pyridazin-3-one]"
11,5.17,"CCc1c(Nc2nnc3n2[C@@H](c2ccc(F)cc2)CCC3)ccc2ncccc12 [Compound 9, (5-Ethyl-quinolin-6-yl)-[(R)-5-(4-fluoro-phenyl)-5,6,7,8-tetrahydro-[1,2,4]triazolo[4,3-a]pyridin-3-yl]-amine]"
12,7.775,"COc1cc(Br)c(Nc2nnc3n2C(c2ccc(F)cc2)COC3)cc1OC (centres unmarked) [Compound 5, (2-Bromo-4,5-dimethoxy-phenyl)-[5-(4-fluoro-phenyl)-5,6-dihydro-8H-[1,2,4]triazolo[3,4-c][1,4]oxazin-3-yl]-amine]"
13,6.135,"O=c1[nH]ncc2c(Nc3nnc4n3[C@H](c3ccc(F)cc3)COC4)cccc12 [Compound 42, 5-[(R)-5-(4-Fluoro-phenyl)-5,6-dihydro-8H-[1,2,4]triazolo[3,4-c][1,4]oxazin-3-ylamino]-2H-phthalazin-1-one]"
14,7.56,"COC[C@H](O)Cn1nc(-c2ccc(C)c(Nc3nnc4n3[C@H](c3ccc(F)cc3)COC4)c2)cc1C [Compound 33, (R)-1-(3-{3-[(R)-5-(4-Fluoro-phenyl)-5,6-dihydro-8H-[1,2,4]triazolo[3,4-c][1,4]oxazin-3-ylamino]-4-methyl-phenyl}-5-methyl-pyrazol-1-yl)-3-methoxy-propan-2-ol]"
15,6.9,"COc1cc(C)c(Nc2nnc3n2C(C)(c2ccc(F)cc2)COC3)cc1OC (centres unmarked) [Compound 23, (4,5-Dimethoxy-2-methyl-phenyl)-[5-(4-fluoro-phenyl)-5-methyl-5,6-dihydro-8H-[1,2,4]triazolo[3,4-c][1,4]oxazin-3-yl]-amine]"
16,6.945,"COc1cc(Br)c(Nc2nnc3n2C(c2ccc(F)cc2)CN(C(C)=O)C3)cc1OC (centres unmarked) [Compound 24, 1-[3-(2-Bromo-4,5-dimethoxy-phenylamino)-5-(4-fluoro-phenyl)-5,6-dihydro-8H-[1,2,4]triazolo[4,3-a]pyrazin-7-yl]-ethanone]"
17,7.865,"Cc1ccc(-c2ccnn(C)c2=O)cc1Nc1nnc2n1[C@H](c1ccc(F)cc1)COC2 [Compound 37, 4-{3-[(R)-5-(4-Fluoro-phenyl)-5,6-dihydro-8H-[1,2,4]triazolo[3,4-c][1,4]oxazin-3-ylamino]-4-methyl-phenyl}-2-methyl-2H-pyridazin-3-one]"
18,7.52,"CCc1c(Nc2nnc3n2C(c2ccc(F)cc2)CCC3)ccc2ncccc12 (centres unmarked) [Compound 2, (5-Ethyl-quinolin-6-yl)-[5-(4-fluoro-phenyl)-5,6,7,8-tetrahydro-[1,2,4]triazolo[4,3-a]pyridin-3-yl]-amine]"
19,7.57,"O=c1[nH]ncc2c(Nc3nnc4n3[C@H](c3ccc(F)cc3)COC4)c(Br)ccc12 [Compound 48, 6-Bromo-5-[(R)-5-(4-fluoro-phenyl)-5,6-dihydro-8H-[1,2,4]triazolo[3,4-c][1,4]oxazin-3-ylamino]-2H-phthalazin-1-one]"
20,7.4167,"COc1cc(Br)c(Nc2nnc3n2C(c2ccc(F)cc2)C[S+]([O-])C3)cc1OC (centres unmarked) [Compound 16, (2-Bromo-4,5-dimethoxy-phenyl)-[5-(4-fluoro-phenyl)-7-oxo-5,6,7,8-tetrahydro-7λ^4-[1,2,4]triazolo[3,4-c][1,4]thiazin-3-yl]-amine]"
21,7.87,"Cc1ccc2ncccc2c1Nc1nnc2n1[C@H](c1ccc(F)cc1)COC2 [Compound 36, [(R)-5-(4-Fluoro-phenyl)-5,6-dihydro-8H-[1,2,4]triazolo[3,4-c][1,4]oxazin-3-yl]-(6-methyl-quinolin-5-yl)-amine]"
22,7.25,"COc1cc(Br)c(Nc2nnc3n2C(c2ccccc2)CCC3)cc1OC (centres unmarked) [Compound 1, (2-Bromo-4,5-dimethoxy-phenyl)-(5-phenyl-5,6,7,8-tetrahydro-[1,2,4]triazolo[4,3-a]pyridin-3-yl)-amine]"
23,5.625,"C[C@H](CO)N1Cc2c(Nc3nnc4n3C(c3cccc(F)c3)COC4)ccc(Cl)c2C1=O (stereo partly drawn) [Compound 28, 7-Chloro-4-[5-(3-fluoro-phenyl)-5,6-dihydro-8H-[1,2,4]triazolo[3,4-c][1,4]oxazin-3-ylamino]-2-((R)-2-hydroxy-1-methyl-ethyl)-2,3-dihydro-isoindol-1-one]"
